Data as given in US10214507B2, “Carbazole-containing amides, carbamates, and ureas as cryptochrome modulators” (Reset Therapeutics, Inc., priority 2014, dated 2019).

System: stable U20S reporter cells harboring Per2-dLuc
Experiment: Per2 assay for evaluating the potency of test compounds (circadian luciferase reporter)
Assay type: cell-based
Conditions: amplitude of Per2-dLuc luminescence vs log concentration
Experimental: Compounds were screened by using a high-throughput circadian assay system as previously described in Zhang, E. E. et al. Cell, 2009, 139, 199-210. In brief, stable U20S reporter cells harboring Per2-dLuc were plated at a density of 30,000 cells/well in Corning 96-well, solid white, flat bottom, TC-treated microplates (Corning®), and incubated for 48 hours at 37° C. in the presence of 5% CO2 in a medium of Dulbecco's Modified Eagle Medium (DMEM) supplemented with 10% fetal bovine serum (FBS) and penicillin (100 units/mL)-streptomycin (100 μg/mL). […] DMSO stocks are then serially diluted in DMSO, typically diluting 3-fold for each dilution step. Following the 48 h period, cell culture medium is removed from plated cells and cells are synchronized with 200 μL/well of complete cell culture medium (described above), supplemented with 5 μM forskolin (Tocris®) and 1 mM beetle luciferin (Promega®). Immediately following synchronization, 1 μL of compound dilution is added to each well. Plates are sealed, shaken briefly, and gene expression was monitored by measuring luminescence (Tecan® Infinite M200 or Tecan® Infinite M200 Pro) continuously for a minimum of 3 days at 35° C. Raw luminescence data (counts) are first analyzed using Multicycle™ software (Actimetrics, Inc.) to determine the amplitude (amp), period, and phase (phz) for each compound concentration. The period length for control wells (i.e. no compound, DMSO only) should be 26-30 h. Amp data are then plotted against the logarithm compound concentration (M) and analyzed by nonlinear regression analysis to determine the EC50.

Compound: C[C@H]1CCN(C[C@H](O)Cn2c3ccc(F)cc3c3cc(F)ccc32)C1=O [Compound 115, (S)-1-((R)-3-(3,6-difluoro-9H-carbazol-9-yl)-2-hydroxypropyl)-3-methylpyrrolidin-2-one]
- EC50: 500 nM

Compound: O=C1[C@H](F)CCN1C[C@H](O)Cn1c2ccccc2c2ccccc21 [Compound 121, (R)-1-((R)-3-(9H-carbazol-9-yl)-2-hydroxypropyl)-3-fluoropyrrolidin-2-one]
- EC50: 210 nM

Compound: O=C1[C@@H]2CC[C@@H](C2)N1C[C@H](O)Cn1c2ccccc2c2ccccc21 [Compound 106, (1S,4R)-2-((R)-3-(9H-carbazol-9-yl)-2-hydroxypropyl)-2-azabicyclo[2.2.1]heptan-3-one]
- EC50: 220 nM

Compound: C[C@@](O)(CN1CC[C@H](F)C1=O)Cn1c2ccc(F)cc2c2cc(F)ccc21 [Compound 125, (S)-1-((S)-3-(3,6-difluoro-9H-carbazol-9-yl)-2-hydroxy-2-methylpropyl)-3-fluoropyrrolidin-2-one]
- EC50: 451 nM

Compound: CC1CCCN(CC(O)Cn2c3ccccc3c3ccccc32)C1=O (stereo not shown) [Compound 64, 1-(3-(9H-carbazol-9-yl)-2-hydroxypropyl)-3-methylpiperidin-2-one]
- EC50: 462 nM

Compound: CC1(C)CCCN(CC(O)Cn2c3ccc(F)cc3c3cc(F)ccc32)C1=O (stereo not shown) [Compound 16, 1-(3-(3,6-difluoro-9H-carbazol-9-yl)-2-hydroxypropyl)-3,3-dimethylpiperidin-2-one]
- EC50: 463 nM

Compound: O=C1CCCCN1CC(O)Cn1c2ccc(F)cc2c2cc(F)ccc21 (stereo not shown) [Compound 4, 1-(3-(3,6-difluoro-9H-carbazol-9-yl)-2-hydroxypropyl)piperidin-2-one]
- EC50: 192 nM

Compound: O=C1N(CC(O)Cn2c3ccccc3c3ccccc32)CCCC1(F)F (stereo not shown) [Compound 69, 1-(3-(9H-carbazol-9-yl)-2-hydroxypropyl)-3,3-difluoropiperidin-2-one]
- EC50: 137 nM

Compound: CC1CCN(CC(O)Cn2c3ccccc3c3ccccc32)C(=O)C1 (stereo not shown) [Compound 61, 2-(3-(9H-carbazol-9-yl)-2-hydroxypropyl)-4-methylpiperidin-2-one]
- EC50: 710 nM

Compound: CC(C)C1CCN(CC(O)Cn2c3ccc(F)cc3c3cc(F)ccc32)C1=O (stereo not shown) [Compound 22, 1-(3-(3,6-difluoro-9H-carbazol-9-yl)-2-hydroxypropyl)-3-isopropylpyrrolidin-2-one]
- EC50: 261 nM

Compound: C[C@@H]1CCC(=O)N1C[C@H](O)Cn1c2ccccc2c2ccccc21 [Compound 111, (R)-1-((R)-3-(9H-carbazol-9-yl)-2-hydroxypropyl)-5-methylpyrrolidin-2-one]
- EC50: 95 nM

Compound: O=C1CCCCN1CC(O)Cn1c2ccccc2c2ccccc21 (stereo not shown) [Compound 1, 1-(3-(9H-carbazol-9-yl)-2-hydroxypropyl)piperidin-2-one]
- EC50: 171 nM

Compound: CC(O)(CN1CCCN(c2ccccc2)C1=O)Cn1c2ccc(F)cc2c2cc(F)ccc21 (stereo not shown) [Compound 79, 1-(3-(3,6-difluoro-9H-carbazol-9-yl)-2-hydroxy-2-methylpropyl)-3-phenyltetrahydropyrimidin-2(1H)-one]
- EC50: 923 nM

Compound: C[C@@H]1CCC(=O)N1C[C@H](O)Cn1c2ccc(F)cc2c2cc(F)ccc21 [Compound 109, (R)-1-((R)-3-(3,6-difluoro-9H-carbazol-9-yl)-2-hydroxypropyl)-5-methylpyrrolidin-2-one]
- EC50: 226 nM

Compound: CCC1CCN(CC(O)Cn2c3ccc(F)cc3c3cc(F)ccc32)C1=O (stereo not shown) [Compound 17, 1-(3-(3,6-difluoro-9H-carbazol-9-yl)-2-hydroxypropyl)-3-ethylpyrrolidin-2-one]
- EC50: 417 nM

Compound: CC(O)(CN1CCOCC1=O)Cn1c2ccc(F)cc2c2cc(F)ccc21 (stereo not shown) [Compound 56, 4-(3-(3,6-difluoro-9H-carbazol-9-yl)-2-hydroxy-2-methylpropyl)morpholin-3-one]
- EC50: 1060 nM

Compound: CC(C)N1CCN(CC(O)Cn2c3ccccc3c3ccccc32)C1=O (stereo not shown) [Compound 98, 1-(3-(9H-carbazol-9-yl)-2-hydroxypropyl)-3-isopropylimidazolidin-2-one]
- EC50: 269 nM

Compound: CC(O)(CN1CCCC(C2CCC2)C1=O)Cn1c2ccc(F)cc2c2cc(F)ccc21 (stereo not shown) [Compound 52, 3-cyclobutyl-1-(3-(3,6-difluoro-9H-carbazol-9-yl)-2-hydroxy-2-methylpropyl)piperidin-2-one]
- EC50: 1360 nM

Compound: CC1CC(=O)N(CC(O)Cn2c3ccc(F)cc3c3cc(F)ccc32)C1C (stereo not shown) [Compound 47, 1-(3-(3,6-difluoro-9H-carbazol-9-yl)-2-hydroxypropyl)-4,5-dimethylpyrrolidin-2-one]
- EC50: 299 nM

Compound: CC(O)(CN1CCCC1=O)Cn1c2ccc(F)cc2c2cc(F)ccc21 (stereo not shown) [Compound 8, 1-(3-(3,6-difluoro-9H-carbazol-9-yl)-2-hydroxy-2-methylpropyl)pyrrolidin-2-one]
- EC50: 527 nM

Compound: O=C1N(CC(O)Cn2c3ccc(F)cc3c3cc(F)ccc32)CCCC1(F)F (stereo not shown) [Compound 13, 1-(3-(3,6-difluoro-9H-carbazol-9-yl)-2-hydroxypropyl)-3,3-difluoropiperidin-2-one]
- EC50: 288 nM

Compound: O=C1NCCCN1CC(O)Cn1c2ccc(F)cc2c2cc(F)ccc21 (stereo not shown) [Compound 71, 1-(3-(3,6-difluoro-9H-carbazol-9-yl)-2-hydroxypropyl)tetrahydropyrimidin-2(1H)-one]
- EC50: 188 nM

Compound: O=C1CC(C2CC2)CN1CC(O)Cn1c2ccccc2c2ccccc21 (stereo not shown) [Compound 65, 1-(3-(9H-carbazol-9-yl)-2-hydroxypropyl)-4-cyclopropylpyrrolidin-2-one]
- EC50: 1030 nM

Compound: O=C1N(CC(O)Cn2c3ccc(F)cc3c3cc(F)ccc32)CCN1C1CCCC1 (stereo not shown) [Compound 91, 1-cyclopentyl-3-(3-(3,6-difluoro-9H-carbazol-9-yl)-2-hydroxypropyl)imidazolidin-2-one]
- EC50: 621 nM

Compound: O=C1C(c2ccccc2)CCN1CC(O)Cn1c2ccc(F)cc2c2cc(F)ccc21 (stereo not shown) [Compound 53, 1-(3-(3,6-difluoro-9H-carbazol-9-yl)-2-hydroxypropyl)-3-phenylpyrrolidin-2-one]
- EC50: 1340 nM

Compound: O=C1N(CC(O)Cn2c3ccc(F)cc3c3cc(F)ccc32)CCCN1C1CC1 (stereo not shown) [Compound 83, 1-cyclopropyl-3-(3-(3,6-difluoro-9H-carbazol-9-yl)-2-hydroxypropyl)tetrahydropyrimidin-2(1H)-one]
- EC50: 147 nM

Compound: O=C1C(C2CCC2)CCN1CC(O)Cn1c2ccc(F)cc2c2cc(F)ccc21 (stereo not shown) [Compound 50, 3-cyclobutyl-1-(3-(3,6-difluoro-9H-carbazol-9-yl)-2-hydroxypropyl)pyrrolidin-2-one]
- EC50: 204 nM

Compound: CC1CCN(CC(C)(O)Cn2c3ccc(F)cc3c3cc(F)ccc32)C(=O)C1 (stereo not shown) [Compound 36, 1-(3-(3,6-difluoro-9H-carbazol-9-yl)-2-hydroxy-2-methylpropyl)-4-methylpiperidin-2-one]
- EC50: 760 nM

Compound: O=C1N(CC(O)Cn2c3ccc(F)cc3c3cc(F)ccc32)CCCN1C1CCC1 (stereo not shown) [Compound 78, 1-cyclobutyl-3-(3-(3,6-difluoro-9H-carbazol-9-yl)-2-hydroxypropyl)tetrahydropyrimidin-2(1H)-one]
- EC50: 440 nM

Compound: CC1CCCN(CC(C)(O)Cn2c3ccc(F)cc3c3cc(F)ccc32)C1=O (stereo not shown) [Compound 28, 1-(3-(3,6-difluoro-9H-carbazol-9-yl)-2-hydroxy-2-methylpropyl)-3-methylpiperidin-2-one]
- EC50: 824 nM

Compound: CCN1CCCN(CC(C)(O)Cn2c3ccc(F)cc3c3cc(F)ccc32)C1=O (stereo not shown) [Compound 87, 1-(3-(3,6-difluoro-9H-carbazol-9-yl)-2-hydroxy-2-methylpropyl)-3-ethyltetrahydropyrimidin-2(1H)-one]
- EC50: 317 nM
